Data on three compounds can be found in patent publication US11246876B2, “Anti-cancer effects of JAK2 inhibitors in combination with thalidomide derivatives and glucocorticoids” (OncoTracker, Inc., priority 2014, dated 2022).

The subject of assay [1] is LAGκ-2 tumors. Nature of the assay: LAGκ-2 human multiple myeloma xenograft in SCID mice. The assay is classed as in vivo. The note with it: dosing as for LAGκ-1A (dexamethasone 1.5 mg/kg for LAGκ-2). The method, then:
(§1) The combination of the JAK2 inhibitor ruxolitinib with lenalidomide and dexamethasone was tested on human multiple myeloma tumors in vivo. The anti-multiple myeloma effects of ruxolitinib were evaluated with mice bearing either LAGκ-1A (bortezomib- and melphalan-sensitive) or LAGκ-2 (bortezomib- and melphalan-resistant) tumors, both of which were originally derived from bone marrow biopsies from multiple myeloma patients. These tumors closely resemble human multiple myeloma and have been passaged through multiple generations of mice with consistent growth and chemoresistance patterns.
In another experiment, mice received an intramuscular implantation of LAGκ-2 tumor tissue, and then underwent treatment with vehicle control, ruxolitinib, dexamethasone, lenalidomide, ruxolitinib and dexamethasone, ruxolitinib and lenalidomide, dexamethasone and lenalidomide, or ruxolitinib with lenalidomide and dexamethasone, as described above (see FIG. 8B). Similar to the effects on LAGκ-1A tumors, when ruxolitinib, lenalidomide, or dexamethasone was administered individually, LAGκ-2 tumor growth was not inhibited compared to control.
(§2) Six- to 8-week-old male severe combined immunodeficient (SCID) mice were obtained from the Jackson Laboratory (Bar Harbor, Me., USA) and maintained in a specific pathogen-free area in our animal resources facility. Human myeloma tumors (LAGκ-1A or LAGκ-2) which have been maintained in our laboratory for many years were excised from an anaesthetized tumor containing donor mouse, sectioned into 20-40 mm3 pieces, and surgically implanted into the left superficial gluteal muscle of the anaesthetized naive SCID mice. Recipient mice received weekly injections of anti-asialo GM1 rabbit serum (Wako Bioproducts, Richmond, Va., USA) to further suppress immune activity and allow growth of the human tumor. All animal studies were conducted according to protocols approved by the Institutional Animal Care and Use Committee. Animals were anaesthetized with ketamine, xylazine, and isoflurane prior to surgery and were euthanized when tumors reached 2 cm in diameter. […]
(In general: In xenograft studies the graft and the host belong to different species.)

For assay [2], the system named is LAGκ-1A tumors. The assay can be described thus: LAGκ-1A human multiple myeloma xenograft in SCID mice. It counts as in vivo. The following applies: ruxolitinib 1.5 mg/kg i.p. twice daily, dexamethasone 1 mg/kg i.p. once daily, lenalidomide 15 mg/kg oral gavage once daily. The method, then:
as §1
Following intramuscular implantation of LAGκ-1A tumor tissue, mice underwent treatment with vehicle control, ruxolitinib, dexamethasone, lenalidomide, ruxolitinib and dexamethasone, ruxolitinib and lenalidomide, dexamethasone and lenalidomide, or ruxolitinib with lenalidomide and dexamethasone (see FIG. 8A). Ruxolitinib was administered via injection at 1.5 mg/kg i.p., twice daily; dexamethasone was administered at 1 mg/kg i.p., once daily, and lenalidomide was administered via oral gavage at 15 mg/kg, once daily. When ruxolitinib, lenalidomide, or dexamethasone was administered individually, LAGκ-1A tumor growth was not inhibited compared to control.
as §2, with “Committee.” for “Committee. Animals were anaesthetized with ketamine, xylazine, and isoflurane prior to surgery and were euthanized when tumors reached 2 cm in diameter.”

Consider `C[C@@H]1C[C@H]2[C@@H]3CCC4=CC(=O)C=C[C@]4(C)[C@@]3(F)[C@@H](O)C[C@]2(C)[C@@]1(O)C(=O)CO` [dexamethasone], for which, in assay [1], the “LAGκ-2 tumor growth compared to control” value is reported as “not inhibited”. For the same compound, the “LAGκ-1A tumor growth compared to control” value in assay [2] is given as “not inhibited”.

With `Nc1cccc2c1CN(C1CCC(=O)NC1=O)C2=O` (stereo not drawn) [lenalidomide], the “LAGκ-2 tumor growth compared to control” value in assay [1] is “not inhibited”. Further, the “LAGκ-1A tumor growth compared to control” value in assay [2] is reported as “not inhibited”.

For `N#CC[C@H](C1CCCC1)n1cc(-c2ncnc3[nH]ccc23)cn1` [ruxolitinib], the “LAGκ-2 tumor growth compared to control” value in assay [1] is listed as “not inhibited”. Also, the “LAGκ-1A tumor growth compared to control” value in assay [2] is on record as “not inhibited”.
